In experiment [1] the test system is liver cancer. The settings on record: phase III of human clinical trials; cited from earlier work.
Experiment [2] deals with human liver tumor cell line ITRI-H28. Put plainly: Cell viability of ITRI-H28 cells after Sorafenib treatment (Alarmablue assay). The format is cell-based. The settings on record: 48-hour treating period, P value 0.02, read-out: half maximal inhibitory concentration (IC50). As for the experimental part: In the experiment, a plurality of plates are prepared with 1×10^4 ITRI-H28 cells seeded respectively thereon and divided into a plurality of groups, and the groups are treated with different concentrations of Sorafenib, such as 30, 15, 7.5, 3.75, 1.88, and 0.94 uM. Next, after a 48-hour treating period, a cell viability of each of the groups is measured by an Alarmablue measurement assay, and results are shown in FIG. 3.
A calculation is done according to the results of FIG. 3, a half maximal inhibitory concentration (IC50) of Sorafenib in the ITRI-H28 cell line are about 2.79±0.41, and a statistical P value is 0.02. According to the above results, the human liver tumor cell line ITRI-H28 has a susceptibility to the HCV-related HCC drug, which is able to use in a HCV-related HCC drug screening. Furthermore, according to the above experiments, the human liver tumor cell line ITRI-H28 has cancer cell properties, which can be used widely in a liver drug screening.

As for `CNC(=O)c1cc(Oc2ccc(NC(=O)Nc3ccc(Cl)c(C(F)(F)F)c3)cc2)ccn1` [Sorafenib], the “extension of patient survival time” value in experiment [1] is “three”. For the same compound, the IC50 in experiment [2] is ~2790 nM.

(Values after patent US20150159141A1, “ISOLATED HUMAN LIVER TUMOR CELL LINE AND METHOD OF AGENT SCREENING” (Industrial Technology Research Institute, priority 2013, published 2015).)
